Laboratory results from ChEMBL document CHEMBL5113541, “Design, Synthesis, and Monoamine Oxidase B Selective Inhibitory Activity of N-Arylated Heliamine Analogues” (ACS Med Chem Lett, 2022).
In brackets after ≈: the same amount, converted by molar mass.

Assays:
[1] = target: T1, MAO-B (amine oxidase [flavin-containing] B) (Homo sapiens, UniProt P27338); test: Inhibition of human MAO-B assessed as residual activity at 10 uM relative to control; details: read-out: Activity
T1 sequence (P27338 whole entry): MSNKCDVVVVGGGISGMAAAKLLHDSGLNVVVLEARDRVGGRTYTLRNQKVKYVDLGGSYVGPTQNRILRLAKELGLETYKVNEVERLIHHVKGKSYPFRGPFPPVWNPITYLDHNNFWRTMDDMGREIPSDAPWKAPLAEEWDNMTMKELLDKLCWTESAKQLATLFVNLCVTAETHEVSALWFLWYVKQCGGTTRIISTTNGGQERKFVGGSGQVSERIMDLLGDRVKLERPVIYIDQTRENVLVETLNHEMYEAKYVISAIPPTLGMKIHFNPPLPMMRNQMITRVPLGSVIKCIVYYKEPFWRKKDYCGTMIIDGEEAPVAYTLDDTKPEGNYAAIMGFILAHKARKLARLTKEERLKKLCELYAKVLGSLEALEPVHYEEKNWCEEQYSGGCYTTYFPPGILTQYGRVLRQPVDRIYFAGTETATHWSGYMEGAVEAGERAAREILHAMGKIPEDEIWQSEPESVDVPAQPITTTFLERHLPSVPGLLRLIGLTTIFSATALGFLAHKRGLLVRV

[2] = Lipophilicity, log D of the compound at pH 7.4; assay type: physicochemical; details: buffer
[3] = Solubility of compound in PBS at pH 7.0 at 100 uM measured for 20 mins by LC-MS/MS analysis; assay type: physicochemical
[4] = Apparent permeability of the compound in human Caco-2 cells at 25 uM measured after 2 hrs by LC-MS/MS analysis; assay type: ADME, cell-based
[5] = Metabolic stability in human liver microsome assessed as compound remaining at 500 uM measured at 10 mins by LC-MS/MS method; assay type: ADME; details: liver microsomes, read-out: Stability
[6] = Metabolic stability in human liver microsome assessed as compound remaining at 500 uM measured at 60 mins by LC-MS/MS method; assay type: ADME; details: liver microsomes, read-out: Stability
[7] = Metabolic stability in mouse liver microsome assessed as compound remaining at 500 uM measured at 10 mins by LC-MS/MS method; assay type: ADME; details: liver microsomes, read-out: Stability
[8] = Metabolic stability in mouse liver microsome assessed as compound remaining at 500 uM measured at 60 mins by LC-MS/MS method; assay type: ADME; details: liver microsomes, read-out: Stability
[9] = target: T2, Amine oxidase [flavin-containing] B (Homo sapiens, UniProt P27338); test: Inhibition of human MAO-B measure after 1 hr by microplate reader analysis
T2 sequence (P27338 whole entry): T1 sequence (P27338 whole entry)

[10] = target: T3, Amine oxidase [flavin-containing] A (Homo sapiens, UniProt P21397); test: Inhibition of human MAO-A measure after 1 hr by microplate reader analysis
T3 sequence (P21397 whole entry): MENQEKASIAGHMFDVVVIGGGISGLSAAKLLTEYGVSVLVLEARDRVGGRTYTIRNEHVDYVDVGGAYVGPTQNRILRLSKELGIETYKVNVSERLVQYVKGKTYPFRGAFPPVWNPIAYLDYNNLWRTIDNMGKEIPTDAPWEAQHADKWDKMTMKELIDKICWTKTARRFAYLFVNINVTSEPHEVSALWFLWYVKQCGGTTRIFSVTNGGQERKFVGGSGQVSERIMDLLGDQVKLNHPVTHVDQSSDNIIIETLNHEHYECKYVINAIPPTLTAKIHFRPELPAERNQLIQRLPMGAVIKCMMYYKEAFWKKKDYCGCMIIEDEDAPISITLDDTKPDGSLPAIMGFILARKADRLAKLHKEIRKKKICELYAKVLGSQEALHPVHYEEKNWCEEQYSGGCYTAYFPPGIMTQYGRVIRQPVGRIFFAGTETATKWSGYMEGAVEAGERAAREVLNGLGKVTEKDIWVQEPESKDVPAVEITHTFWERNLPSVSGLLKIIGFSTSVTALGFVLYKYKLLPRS

SH-SY5Y = test: Cytotoxicity against human SH-SY5Y cells assessed as inhibition of cell viability at 10 uM after 24 hrs by MTS assay relative to control; assay type: functional
Rattus norvegicus = organism: Rattus norvegicus; test: Inhibition of rat brain stem MAO at 2 mM using serotonin as substrate incubated for 30 mins by fluorometric analysis relative to control; assay type: tissue-based; details: Brainstem

| Compound | activity at 10 µM [1] | logD [2] | solubility at 20 min, 100 µM [3] | Papp at 2 h, 25 µM [4] | remaining at 10 min [5] | remaining at 1 h [6] | remaining at 10 min [7] | remaining at 1 h [8] | IC50 [9] | IC50 [10] | Activity (SH-SY5Y) | inhibition (Rattus norvegicus) |
| --- | --- | --- | --- | --- | --- | --- | --- | --- | --- | --- | --- | --- |
| COc1cc2c(cc1OC)CN(c1cccc(O)c1)CC2 | 107% | 3.2 | 89.6 µM (≈ 25.6 µg/mL) | 437 nm/s | 94.7% | 72.1% | 22.5% | 0.5% | – | – | – | – |
| COc1cc2c(cc1OC)CN(c1ccccn1)CC2 | 89% | 3.7 | 0.8 µM (≈ 0.216 µg/mL) | 388 nm/s | 70.8% | 17.7% | 9.9% | 0.2% | – | – | – | – |
| COc1cc2c(cc1OC)CN(c1ccc(C=O)cc1)CC2 | 14% | 3.7 | 6.6 µM (≈ 1.96 µg/mL) | 28 nm/s | 61% | 9.2% | 12.6% | 0.4% | 1.55 µM | > 100 µM | 99% | – |
| COc1cc2c(cc1OC)C(C)N(c1ccc(F)cc1)CC2 (stereo not given) | – | 4.8 | 7.6 µM (≈ 2.29 µg/mL) | 83 nm/s | 71.1% | 23.2% | 1.2% | 0.3% | – | – | – | – |
| COc1cc2c(cc1OC)C(C)N(c1ccc(C=O)cc1)CC2 (stereo not given) | – | 4 | 22.2 µM (≈ 6.91 µg/mL) | 74 nm/s | 66.1% | 18% | 15.5% | 1% | – | – | – | – |
| COc1cc2c(cc1OC)CN(c1ccc(F)cc1)CC2 | 57% | 4.5 | 20.3 µM (≈ 5.83 µg/mL) | 204 nm/s | 56.8% | 56.9% | 2.5% | 0.6% | 13.5 µM | > 100 µM | 104% | – |
| COc1cc2c(cc1OC)CN(c1ccc(C(=O)O)cc1)CC2 | 97% | 2.5 | ≥ 95 µM | 812 nm/s | 91.8% | 88.4% | 91.6% | 91.8% | – | – | – | – |
| COc1cc2c(cc1OC)CN(c1ccc(CO)cc1)CC2 | 79% | 3.1 | 93.9 µM (≈ 28.1 µg/mL) | 268 nm/s | 97.8% | 79.5% | 92.6% | 64.4% | – | – | – | – |
| COc1cc2c(cc1OC)CN(c1cc(F)cc(F)c1)CC2 | 24% | – | – | – | – | – | – | – | 5.1 µM | > 100 µM | 97.3% | – |
| COc1cc2c(cc1OC)[C@@H](C)NCC2 | – | – | – | – | – | – | – | – | – | – | – | 48% |
| COc1ccc(N2CCc3cc(OC)c(OC)cc3C2)cc1 | 95% | 4.2 | 3.7 µM (≈ 1.11 µg/mL) | 101 nm/s | 77.1% | 53.5% | 12.1% | 1.7% | – | – | – | – |
| COC(=O)c1ccccc1N1CCc2cc(OC)c(OC)cc2C1 | 103% | 4.3 | 12.7 µM (≈ 4.16 µg/mL) | 21 nm/s | 7.2% | 0.2% | 0.4% | 0.1% | – | – | – | – |
| COc1cc2c(cc1OC)CN(c1cc(C(F)(F)F)cc(C(F)(F)F)c1)CC2 | 86% | 5.7 | < 0.5 µM | < 1 nm/s | 98.7% | 62.2% | 83.1% | 26.9% | – | – | – | – |
| COc1cc2c(cc1OC)CN(c1cccnc1)CC2 | 86% | 3.7 | 78.9 µM (≈ 21.3 µg/mL) | 395 nm/s | 66.9% | 15.5% | 9.5% | 0.2% | – | – | – | – |
| COc1cc2c(cc1OC)C(C)N(c1ccc(CO)cc1)CC2 (stereo not given) | – | 3.4 | 89.8 µM (≈ 28.1 µg/mL) | 344 nm/s | 91.3% | 78.4% | 83.4% | 33.8% | – | – | – | – |
| COc1cc2c(cc1OC)CN(c1ccccc1)CC2 | 81% | 4.5 | 19.1 µM (≈ 5.14 µg/mL) | 210 nm/s | 63.9% | 10.5% | 3.7% | 0.4% | – | – | – | – |
